Experiments:
[1] = system: rabbit normal intraocular pressure; test: Intraocular pressure reducing action; type: in vivo, Japanese white rabbit; conditions: Oryctolagus cuniculus, topical, read-out: intraocular pressure reducing degree; for inhibition in vivo at 3000 µM: 3 mM aqueous solution, 50 μl to the left eye, max IOP reduction (2, 4, 6 hours) / value immediately before administration; for inhibition in vivo at 1000 µM: test compound of 1 mM, same test as Test Example 3
In short: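 Japanese white rabbits (~2 kg) under topical anaesthesia received 50 μl of a 3 mM aqueous test solution in the left eye, right eye untreated. IOP read by tonometer before and at 2, 4, 6 h; maximal left–right difference divided by pre-dose IOP ×100 gives % reduction.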

human ROCK1 = molecular target: T1, human ROCK1 (Homo sapiens, UniProt Q13464); test: Measurement of Rho kinase inhibitory activity (ELISA of MBS phosphorylation); type: biochemical; conditions: human ROCK1, MBS substrate, 100 μM ATP, 30° C. for 10 minutes
T1 construct: His tag (N); host or cells: insect cells (Sf9)
In short: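 N-terminal His-tagged human ROCK1 (1-727, Sf9-expressed) phosphorylated plate-immobilized MBS in 20 mM HEPES pH 7.5, 100 μM ATP, 30° C for 10 minutes. Phospho-MBS detected by antibody ELISA (A490); IC50 is concentration giving 50% inhibition.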

T1 sequence (Q13464 1-727): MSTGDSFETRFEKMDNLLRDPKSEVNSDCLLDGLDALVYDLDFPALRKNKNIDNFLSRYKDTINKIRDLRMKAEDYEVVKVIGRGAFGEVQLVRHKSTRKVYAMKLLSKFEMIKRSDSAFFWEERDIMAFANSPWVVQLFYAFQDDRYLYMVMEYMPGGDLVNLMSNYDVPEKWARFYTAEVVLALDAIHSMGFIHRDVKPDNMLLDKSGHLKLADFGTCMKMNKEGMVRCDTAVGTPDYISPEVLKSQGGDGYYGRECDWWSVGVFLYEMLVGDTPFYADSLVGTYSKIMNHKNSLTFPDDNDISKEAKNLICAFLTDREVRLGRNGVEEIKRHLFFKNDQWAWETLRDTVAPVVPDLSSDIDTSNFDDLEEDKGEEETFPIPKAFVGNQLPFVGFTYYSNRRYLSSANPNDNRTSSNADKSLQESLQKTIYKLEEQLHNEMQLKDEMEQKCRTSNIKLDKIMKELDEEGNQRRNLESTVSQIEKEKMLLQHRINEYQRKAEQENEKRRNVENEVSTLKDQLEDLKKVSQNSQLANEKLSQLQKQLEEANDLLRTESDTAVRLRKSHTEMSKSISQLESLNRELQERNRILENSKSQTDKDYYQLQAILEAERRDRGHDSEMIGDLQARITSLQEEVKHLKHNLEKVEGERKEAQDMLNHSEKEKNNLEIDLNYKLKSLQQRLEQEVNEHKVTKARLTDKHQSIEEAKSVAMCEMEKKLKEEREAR

Row | IC50 (human ROCK1) [nM] | Compound | inhibition in vivo at 3000 µM [1] [%] | inhibition in vivo at 1000 µM [1] [%]
1 | < 1000 | CN[C@H]1CCN(S(=O)(=O)c2cccc3cncc(Cl)c23)C1 [Example 19-3, (S)-1-(4-Chloro-5-isoquinolinesulfonyl)-3-(methylamino)pyrrolidine] | ≥ 20 | ≥ 20
2 | < 1000 | N[C@H]1CCN(S(=O)(=O)c2cccc3cncc(Cl)c23)C1 [Example 19-1, (S)-3-Amino-1-(4-chloro-5-isoquinolinesulfonyl)pyrrolidine] | ≥ 20 | –
3 | < 1000 | CN[C@H]1CCN(S(=O)(=O)c2cccc3cncc(C)c23)C1 [Example 8-3] | ≥ 20 | ≥ 20
4 | < 1000 | CN[C@H]1CCN(S(=O)(=O)c2cccc3c(O)ncc(Cl)c23)C1 [Example 36-1, (S)-1-(1-Hydroxy-4-chloro-5-isoquinolinesulfonyl)-3-(methylamino)pyrrolidine] | 10 to 20 | –

— patent US7964613B2 (Asahi Kasei Pharma Corporation, priority 2007, dated 2011)
